Columns and labels:
[1] = test system: A1bG (RNA, riboswitch) GGACUCGGGGUGCCCUUCUGCGUGAAGGCUGAGAAAUACCCGUGUCACCUGAUCUGGAUAAUGCCAGCGUAGGGAAGUUC; test: ITC; conditions: 100 mM KCl, 10 mM MgCl2; 40 mM Hepes pH 7.5, 303.15 K
[2] = test system: Natural E. coli TPP riboswitch (RNA, riboswitch) GGACUCGGGGUGCCCUUCUGCGUGAAGGCUGAGAAAUACCCGUAUCACCUGAUCUGGAUAAUGCCAGCGUAGGGAAGUUC; test: native gel electrophoresis (mobility increase); conditions: 1 mM Mg2+; 25 mM Tris, 192 mM glycine pH 8.3; 100 µM TPP
[3] = test system: Natural E. coli TPP riboswitch (RNA, riboswitch) GGACUCGGGGUGCCCUUCUGCGUGAAGGCUGAGAAAUACCCGUAUCACCUGAUCUGGAUAAUGCCAGCGUAGGGAAGUUC; test: ITC; conditions: 100 mM KCl, 10 mM MgCl2; 40 mM Hepes pH 7.5, 303.15 K
[4] = test system: A1nC (RNA, riboswitch) GGACUCGGGGUGCCCUUCUGCGUGAAGGCUGAGAAAUACCCGUAUCACCUGAUCUGGAUAAUGCCAGCGUAGGGCAGUUC; test: ITC; conditions: 100 mM KCl, 10 mM MgCl2; 40 mM Hepes pH 7.5, 303.15 K; 150 µM TPP titrated into 15 µM RNA
[5] = test system: A2bU (RNA, riboswitch) GGACUCGGGGUGCCCUUCUGCGUGAAGGCUGAGAAAUACCCGUAUCUCCUGAUCUGGAUAAUGCCAGCGUAGGGAAGUUC; test: ITC; conditions: 100 mM KCl, 10 mM MgCl2; 40 mM Hepes pH 7.5, 303.15 K
[6] = test system: ΔUC (RNA, riboswitch) GGACUCGGGGUGCCCUUCUGCGUGAAGGCUGAGAAAUACCCGUAACCUGAUCUGGAUAAUGCCAGCGUAGGGAAGUUC; test: ITC; conditions: 100 mM KCl, 10 mM MgCl2; 40 mM Hepes pH 7.5, 303.15 K
[7] = test system: A2bC (RNA, riboswitch) GGACUCGGGGUGCCCUUCUGCGUGAAGGCUGAGAAAUACCCGUAUCCCCUGAUCUGGAUAAUGCCAGCGUAGGGAAGUUC; test: ITC; conditions: 100 mM KCl, 10 mM MgCl2; 40 mM Hepes pH 7.5, 303.15 K
[8] = test system: A1nC (RNA, riboswitch) GGACUCGGGGUGCCCUUCUGCGUGAAGGCUGAGAAAUACCCGUAUCACCUGAUCUGGAUAAUGCCAGCGUAGGGCAGUUC; test: native gel electrophoresis (mobility increase); conditions: 1 mM Mg2+; 25 mM Tris, 192 mM glycine pH 8.3; 100 µM TPP
[9] = test system: A1nU (RNA, riboswitch) GGACUCGGGGUGCCCUUCUGCGUGAAGGCUGAGAAAUACCCGUAUCACCUGAUCUGGAUAAUGCCAGCGUAGGGUAGUUC; test: ITC; conditions: 100 mM KCl, 10 mM MgCl2; 40 mM Hepes pH 7.5, 303.15 K

Kd [1]: 2440 ± 230 nM
binding [2]: yes
Kd [3]: 230 ± 20 nM
binding [4]: no
Kd [5]: 550 ± 40 nM
Kd [6]: 280 ± 40 nM
Kd [7]: 850 ± 110 nM
binding [8]: no
Kd [9]: 4070 ± 730 nM
SMILES: Cc1ncc(C[n+]2csc(CCOP(=O)(O)OP(=O)(O)O)c2C)c(N)n1

From PMC4005666 (2014)
